Source: patent US8633206B2, “Pyrrolo[2,3-D]pyrimidine compounds” (Pfizer Inc., priority 2009, dated 2014)

Assays:
Assay type in all cases: biochemical
JAK1 = JAK1 (Homo sapiens (Human), UniProt P23458); test: JAK enzymatic assay (peptide mobility shift), JAK1; settings: recombinant JAK1 20 nM, IRS-1 peptide, 240 minutes
JAK3 = JAK3 (Homo sapiens (Human), UniProt P52333); test: JAK enzymatic assay (peptide mobility shift), JAK3; settings: recombinant JAK3 1 nM, JAKtide peptide, 90 minutes
JAK2 = JAK2 (Homo sapiens (Human), UniProt O60674); test: JAK enzymatic assay (peptide mobility shift), JAK2; settings: recombinant JAK2 2 nM, JAKtide peptide, 150 minutes
Sequence of JAK2 (O60674 808-1132): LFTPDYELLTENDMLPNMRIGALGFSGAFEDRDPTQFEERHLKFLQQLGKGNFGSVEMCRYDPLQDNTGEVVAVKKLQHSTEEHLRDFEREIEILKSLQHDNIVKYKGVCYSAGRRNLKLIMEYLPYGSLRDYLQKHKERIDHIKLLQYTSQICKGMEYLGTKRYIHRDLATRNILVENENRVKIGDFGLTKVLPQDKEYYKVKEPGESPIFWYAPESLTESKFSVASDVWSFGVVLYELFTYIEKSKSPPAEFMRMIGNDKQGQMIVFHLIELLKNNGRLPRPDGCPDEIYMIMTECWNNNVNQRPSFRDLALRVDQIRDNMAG

Sequence of JAK1 (P23458 whole entry): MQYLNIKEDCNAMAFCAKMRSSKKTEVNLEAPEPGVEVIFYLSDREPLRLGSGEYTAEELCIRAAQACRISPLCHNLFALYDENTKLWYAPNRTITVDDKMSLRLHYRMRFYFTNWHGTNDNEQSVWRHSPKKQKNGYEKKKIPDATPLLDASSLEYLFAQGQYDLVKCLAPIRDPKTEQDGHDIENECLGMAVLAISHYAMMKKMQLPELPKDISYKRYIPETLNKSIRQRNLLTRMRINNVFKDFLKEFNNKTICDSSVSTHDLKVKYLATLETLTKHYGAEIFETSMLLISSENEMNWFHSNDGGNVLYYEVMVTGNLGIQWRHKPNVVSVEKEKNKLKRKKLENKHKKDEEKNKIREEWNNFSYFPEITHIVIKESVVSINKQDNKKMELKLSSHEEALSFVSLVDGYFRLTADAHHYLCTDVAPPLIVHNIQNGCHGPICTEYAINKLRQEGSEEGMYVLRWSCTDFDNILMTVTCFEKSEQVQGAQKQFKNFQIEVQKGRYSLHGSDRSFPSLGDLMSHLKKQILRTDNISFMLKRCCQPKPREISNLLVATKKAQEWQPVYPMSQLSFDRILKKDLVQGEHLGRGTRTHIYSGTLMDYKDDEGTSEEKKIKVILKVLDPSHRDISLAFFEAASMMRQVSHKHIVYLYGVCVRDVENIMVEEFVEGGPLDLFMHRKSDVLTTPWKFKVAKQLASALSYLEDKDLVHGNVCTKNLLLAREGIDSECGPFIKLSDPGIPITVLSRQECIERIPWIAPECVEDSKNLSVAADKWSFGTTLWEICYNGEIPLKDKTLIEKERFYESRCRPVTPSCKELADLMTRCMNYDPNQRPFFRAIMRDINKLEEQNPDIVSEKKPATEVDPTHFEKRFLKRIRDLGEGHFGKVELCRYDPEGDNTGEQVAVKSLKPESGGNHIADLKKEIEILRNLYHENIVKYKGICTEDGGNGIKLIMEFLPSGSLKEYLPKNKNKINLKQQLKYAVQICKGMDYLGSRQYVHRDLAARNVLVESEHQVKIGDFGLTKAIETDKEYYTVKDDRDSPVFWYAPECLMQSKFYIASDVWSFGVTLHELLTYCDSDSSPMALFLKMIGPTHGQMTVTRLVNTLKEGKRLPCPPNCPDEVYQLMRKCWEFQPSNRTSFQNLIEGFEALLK
Sequence of JAK3 (P52333 781-1124): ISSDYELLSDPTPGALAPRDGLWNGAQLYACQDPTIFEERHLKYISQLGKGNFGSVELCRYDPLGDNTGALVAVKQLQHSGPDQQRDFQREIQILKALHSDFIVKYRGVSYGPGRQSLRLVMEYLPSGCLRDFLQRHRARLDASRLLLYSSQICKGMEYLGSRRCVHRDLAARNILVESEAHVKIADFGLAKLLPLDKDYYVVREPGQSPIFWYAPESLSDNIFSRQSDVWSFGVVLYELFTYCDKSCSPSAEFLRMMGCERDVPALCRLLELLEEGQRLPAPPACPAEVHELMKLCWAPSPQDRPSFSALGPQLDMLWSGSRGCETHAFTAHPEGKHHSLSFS

## CN(c1ncnc2[nH]ccc12)[C@H]1CC[C@H](CS(=O)(=O)N2CC[C@@H](O)[C@H](O)C2)CC1 [Example 12, (3R,4R)-1-[({trans-4-[methyl(7H-pyrrolo[2,3-d]pyrimidin-4-yl)amino]-cyclohexyl}methyl)sulfonyl]-piperidine-3,4-diol]
JAK1
  IC50: 4.28 nM
JAK3
  IC50: 119 nM
JAK2
  IC50: 11.8 nM

## CN(c1ncnc2[nH]ccc12)[C@H]1CC[C@H](CS(=O)(=O)N2CCC[C@H](O)C2)CC1 [Example 58, 1-[({trans-4-[methyl(7H-pyrrolo[2,3-d]pyrimidin-4-yl)-amino]cyclohexyl}-methyl)sulfonyl]piperidin-3-ol]
JAK1
  IC50: 3.2 nM
JAK3
  IC50: 175 nM
JAK2
  IC50: 18 nM

## CN(c1ncnc2[nH]ccc12)[C@H]1CC[C@@H](CS(=O)(=O)N2CCC[C@H](C#N)C2)CC1 [Example 39, 1-[({cis-4-[methyl(7H-pyrrolo[2,3-d]pyrimidin-4-yl)amino]cyclohexyl}-methyl)sulfonyl]piperidine-3-carbonitrile]
JAK1
  IC50: 23.4 nM
JAK3
  IC50: 393 nM
JAK2
  IC50: 75.4 nM

## CN(c1ncnc2[nH]ccc12)[C@H]1CC[C@H](CS(=O)(=O)N2C[C@H](CO)[C@H](S(C)(=O)=O)C2)CC1 [Example 33, [(3R,4S)-1-[({trans-4-[methyl(7H-pyrrolo[2,3-d]pyrimidin-4-yl)amino]-cyclohexyl}methyl)sulfonyl]-4-(methylsulfonyl)-pyrrolidin-3-yl]methanol]
JAK1
  IC50: 10.4 nM
JAK3
  IC50: 275 nM
JAK2
  IC50: 32.2 nM

## CN(c1ncnc2[nH]ccc12)[C@H]1CC[C@H](CS(=O)(=O)N2CCC[C@@H](OC(=O)C(C)(C)C)C2)CC1 [Example 134, trans-(R)-1-((4-(methyl(7H-pyrrolo[2,3-d]pyrimidin-4-yl)amino)cyclohexyl)methylsulfonyl)piperidin-3-yl pivalate]
JAK1
  IC50: 0.0227 nM
JAK3
  IC50: 3.89 nM
JAK2
  IC50: 0.129 nM

## C[C@H]1CN(S(=O)(=O)C[C@H]2CC[C@H](N(C)c3ncnc4[nH]ccc34)CC2)C[C@@H]1CO [Example 80, {(3R,4R)-4-methyl-1-[({trans-4-[methyl(7H-pyrrolo[2,3-d]pyrimidin-4-yl)amino]cyclohexyl}-methyl)sulfonyl]pyrrolidin-3-yl}methanol]
JAK1
  IC50: 3.03 nM
JAK3
  IC50: 205 nM
JAK2
  IC50: 18.5 nM

## CN(c1ncnc2[nH]ccc12)[C@H]1CC[C@H](CS(=O)(=O)N2CCN(c3ccccn3)CC2)CC1 [Example 120, N-methyl-N-(trans-4-{[(4-pyridin-2-ylpiperazin-1-yl)sulfonyl]methyl}cyclo-hexyl)-7H-pyrrolo[2,3-d]-pyrimidin-4-amine]
JAK1
  IC50: 8.43 nM
JAK3
  IC50: 208 nM
JAK2
  IC50: 22.3 nM

## C[C@@H]1C[C@@H](CS(=O)(=O)N2CCC[C@@H](O)C2)CC[C@@H]1N(C)c1ncnc2[nH]ccc12 [Example 129, (3R)-1-[({(1S,3R,4S)-3-methyl-4-[methyl(7H-pyrrolo[2,3-d]pyrimidin-4-yl)amino]cyclohexyl}-methyl)sulfonyl]piperidin-3-ol]
JAK1
  IC50: 1.7 nM
JAK3
  IC50: 19.4 nM
JAK2
  IC50: 6.89 nM

## CN(c1ncnc2[nH]ccc12)[C@H]1CC[C@H](CS(=O)(=O)N2CC[C@H](OCC(=O)N3CCCC3)C2)CC1 [Example 98, N-methyl-N-[trans-4-({[3-(2-oxo-2-pyrrolidin-1-ylethoxy)pyrrolidin-1-yl]sulfonyl}methyl)cyclo-hexyl]-7H-pyrrolo[2,3-d]pyrimidin-4-amine]
JAK1
  IC50: 4.37 nM
JAK3
  IC50: 386 nM
JAK2
  IC50: 29.6 nM

## CNS(=O)(=O)[C@H]1CCN(S(=O)(=O)C[C@H]2CC[C@H](N(C)c3ncnc4[nH]ccc34)CC2)C1 [Example 81, N-methyl-1-[({trans-4-[methyl(7H-pyrrolo[2,3-d]-pyrimidin-4-yl)amino]-cyclohexyl}methyl)sulfonyl] pyrrolidine-3-sulfonamide]
JAK1
  IC50: 2.78 nM
JAK3
  IC50: 90.6 nM
JAK2
  IC50: 24.8 nM

## C[C@H]1CCCN(S(=O)(=O)C[C@H]2CC[C@H](N(C)c3ncnc4[nH]ccc34)CC2)C1 [Example 61, N-methyl-N-(trans-4-{[(3-methylpiperidin-1-yl)sulfonyl]methyl}cyclo-hexyl)-7H-pyrrolo[2,3-d]-pyrimidin-4-amine]
JAK1
  IC50: 10.8 nM
JAK3
  IC50: 851 nM
JAK2
  IC50: 72.2 nM

## CN(c1ncnc2[nH]ccc12)[C@H]1CC[C@H](CS(=O)(=O)N2CC[C@@H](CO)C2)CC1 [Example 30, {(3R)-1-[({trans-4-[methyl(7H-pyrrolo[2,3-d]pyrimidin-4-yl)amino]-cyclohexyl}methyl)sulfonyl]-pyrrolidin-3-yl}-methanol]
JAK1
  IC50: 3.06 nM
JAK3
  IC50: 112 nM
JAK2
  IC50: 8.36 nM

## CN(c1ncnc2[nH]ccc12)[C@H]1CC[C@H](CS(=O)(=O)N2CCC(c3nc(CS(C)(=O)=O)no3)CC2)CC1 [Example 50, N-methyl-N-(trans-4-{[(4-{3-[(methylsulfonyl)-methyl]-1,2,4-oxadiazol-5-yl}piperidin-1-yl)sulfonyl]-methyl)cyclohexyl)-7H-pyrrolo[2,3-d]pyrimidin-4-amine]
JAK1
  IC50: 8.33 nM
JAK3
  IC50: 581 nM
JAK2
  IC50: 65.8 nM

## CCOP(=O)(OCC)O[C@@H]1CCCN(S(=O)(=O)C[C@H]2CC[C@H](N(C)c3ncnc4[nH]ccc34)CC2)C1 [Example 140, Diethyl (3R)-1-[({trans-4-[methyl(7H-pyrrolo[2,3-d]pyrimidin-4-yl)amino]cyclohexyl}methyl)sulfonyl]piperidin-3-yl phosphate]
JAK1
  IC50: 0.0235 nM
JAK3
  IC50: 1.8 nM
JAK2
  IC50: 0.116 nM

## COCCC1(C(N)=O)CCN(S(=O)(=O)C[C@H]2CC[C@H](N(C)c3ncnc4[nH]ccc34)CC2)CC1 [Example 45, 4-(2-methoxyethyl)-1-[({trans-4-[methyl(7H-pyrrolo[2,3-d]pyrimidin-4-yl)amino]cyclohexyl}-methyl)sulfonyl]piperidine-4-carboxamide]
JAK1
  IC50: 1.59 nM
JAK3
  IC50: 39.6 nM
JAK2
  IC50: 8.97 nM

## CN(c1ncnc2[nH]ccc12)[C@H]1CC[C@H](CS(=O)(=O)N2CCC(O)(c3ccccc3)CC2)CC1 [Example 24, 1-[({trans-4-[methyl(7H-pyrrolo[2,3-d]pyrimidin-4-yl)amino]cyclohexyl}methyl)-sulfonyl]-4-phenyl-piperidin-4-ol]
JAK1
  IC50: 5.03 nM
JAK3
  IC50: 37.4 nM
JAK2
  IC50: 7.42 nM

## CN(c1ncnc2[nH]ccc12)[C@H]1CC[C@H](CS(=O)(=O)N2CC[C@H](Cc3cnccn3)C2)CC1 [Example 102, N-methyl-N-[trans-4-({[3-(pyrazin-2-ylmethyl)-pyrrolidin-1-yl]sulfonyl}-methyl)cyclohexyl]-7H-pyrrolo[2,3-d]pyrimidin-4-amine]
JAK1
  IC50: 19.9 nM
JAK3
  IC50: 283 nM
JAK2
  IC50: 28.6 nM

## CN(C(=O)OC(C)(C)C)[C@H]1CCN(S(=O)(=O)C[C@H]2CC[C@H](N(C)c3ncnc4[nH]ccc34)CC2)C1 [Example 92, tert-butyl methyl{(3S)-1-[({trans-4-[methyl(7H-pyrrolo[2,3-d]pyrimidin-4-yl)amino]cyclohexyl}methyl)-sulfonyl]pyrrolidin-3-yl}carbamate]
JAK1
  IC50: 6.91 nM
JAK3
  IC50: 488 nM
JAK2
  IC50: 81 nM

## CC1CN(S(=O)(=O)C[C@H]2CC[C@H](N(C)c3ncnc4[nH]ccc34)CC2)CCN1C (stereo partly drawn) [Example 38, N-(trans-4-{[(3,4-dimethylpiperazin-1-yl)-sulfonyl]methyl}cyclo-hexyl)-N-methyl-7H-pyrrolo-[2,3-d]pyrimidin-4-amine]
JAK1
  IC50: 11.4 nM
JAK3
  IC50: 1920 nM
JAK2
  IC50: 126 nM
